Test system: small cell lung cancer cell lines
Experiment: qRT-PCR time- and dosage-dependent expression change of candidate PD markers ASCL1, GRP, NOTCH1 in SCLC cell lines
Assay type: cell-based, human
Experimental: Seven small cell lung cancer cell lines were treated with 0.1 nM, 1 nM and 10 nM (trans)-N1-((1R,2S)-2-phenylcyclopropyl)cyclohexane-1,4-diamine or vehicle 24 hr, 96 hr and 7 days. Lysates were prepared by lysis in RNA lysis buffer containing 1% β-mercaptoethanol. RNA extraction was performed using a Maxwell 16 instrument and a Maxwell 16 LEV simply RNA cells Kit (Promega), according to the manufacturer's instructions. The mRNA expression levels of each cell line after treatment were then measured using qRT-PCR. The RT-qPCR reaction was conducted using a one-step kit (ABI), with a duplexed house-keeping control (Assay ID Hs02800695_m1) using the assays in the table below. The log 2 fold changes for each gene were calculated by comparing with the vehicle controlled samples at 24 hr sampling point.
Table 6 contains the dose-dependent effect on expression changes for candidate PD markers ASCL1 (Assay ID Hs04187546_g1), GRP (Assay ID Hs01107047_m1) and NOTCH1 (Assay ID Hs01062014_m1).

[1] = SHP-77, 0.1 nM, 24 hrs, vs vehicle at 24 hr
[2] = SHP-77, 0.1 nM, 96 hrs, vs vehicle at 24 hr
[3] = SHP-77, 0.1 nM, 168 hrs, vs vehicle at 24 hr
[4] = SHP-77, 1 nM, 24 hrs, vs vehicle at 24 hr
[5] = SHP-77, 1 nM, 96 hrs, vs vehicle at 24 hr
[6] = SHP-77, 1 nM, 168 hrs, vs vehicle at 24 hr
[7] = SHP-77, 10 nM, 24 hrs, vs vehicle at 24 hr
[8] = SHP-77, 10 nM, 96 hrs, vs vehicle at 24 hr
[9] = SHP-77, 10 nM, 168 hrs, vs vehicle at 24 hr

N[C@H]1CC[C@H](N[C@@H]2C[C@H]2c2ccccc2)CC1 [RG6016, (trans)-N1-((1R,2S)-2-phenylcyclopropyl)cyclohexane-1,4-diamine]
Log2_FC ASCL1 (NCI-H510A, 1 nM, 168 hrs): −0.51
Log2_FC GRP (NCI-H510A, 1 nM, 168 hrs): −2.34
Log2_FC NOTCH1 (NCI-H510A, 1 nM, 168 hrs): 3.98
Log2_FC ASCL1 (NCI-H510A, 10 nM, 24 hrs): −0.28
Log2_FC GRP (NCI-H510A, 10 nM, 24 hrs): −0.35
Log2_FC NOTCH1 (NCI-H510A, 10 nM, 24 hrs): 1.60
Log2_FC ASCL1 (NCI-H510A, 10 nM, 96 hrs): −0.55
Log2_FC GRP (NCI-H510A, 10 nM, 96 hrs): −2.02
Log2_FC NOTCH1 (NCI-H510A, 10 nM, 96 hrs): 2.89
Log2_FC ASCL1 (NCI-H510A, 10 nM, 168 hrs): −0.64
Log2_FC GRP (NCI-H510A, 10 nM, 168 hrs): −2.53
Log2_FC NOTCH1 (NCI-H510A, 10 nM, 168 hrs): 4.16
Log2_FC NOTCH1 (NCI-H526, 0.1 nM, 24 hrs, vs vehicle at 24 hr): 0.04
Log2_FC NOTCH1 (NCI-H526, 0.1 nM, 96 hrs, vs vehicle at 24 hr): 0.51
Log2_FC NOTCH1 (NCI-H526, 0.1 nM, 168 hrs, vs vehicle at 24 hr): 0.55
Log2_FC NOTCH1 (NCI-H526, 1 nM, 24 hrs, vs vehicle at 24 hr): 0.27
Log2_FC NOTCH1 (NCI-H526, 1 nM, 96 hrs, vs vehicle at 24 hr): 0.53
Log2_FC NOTCH1 (NCI-H526, 1 nM, 168 hrs, vs vehicle at 24 hr): 0.96
Log2_FC NOTCH1 (NCI-H526, 10 nM, 24 hrs, vs vehicle at 24 hr): 0.41
Log2_FC NOTCH1 (NCI-H526, 10 nM, 96 hrs, vs vehicle at 24 hr): 0.70
Log2_FC NOTCH1 (NCI-H526, 10 nM, 168 hrs, vs vehicle at 24 hr): 0.33
Log2_FC ASCL1 (NCI-H1417, 0.1 nM, 24 hrs): −0.19
Log2_FC GRP (NCI-H1417, 0.1 nM, 24 hrs): 0.24
Log2_FC NOTCH1 (NCI-H1417, 0.1 nM, 24 hrs): 0.14
Log2_FC ASCL1 (NCI-H1417, 0.1 nM, 96 hrs): 0.12
Log2_FC GRP (NCI-H1417, 0.1 nM, 96 hrs): −0.25
Log2_FC NOTCH1 (NCI-H1417, 0.1 nM, 96 hrs): 0.98
Log2_FC ASCL1 (NCI-H1417, 0.1 nM, 168 hrs): 0.13
Log2_FC GRP (NCI-H1417, 0.1 nM, 168 hrs): −0.51
Log2_FC NOTCH1 (NCI-H1417, 0.1 nM, 168 hrs): 0.86
Log2_FC ASCL1 (NCI-H1417, 1 nM, 24 hrs): −0.20
Log2_FC GRP (NCI-H1417, 1 nM, 24 hrs): −0.25
Log2_FC NOTCH1 (NCI-H1417, 1 nM, 24 hrs): 1.40
Log2_FC ASCL1 (NCI-H1417, 1 nM, 96 hrs): −0.27
Log2_FC GRP (NCI-H1417, 1 nM, 96 hrs): −1.06
Log2_FC NOTCH1 (NCI-H1417, 1 nM, 96 hrs): 3.04
Log2_FC ASCL1 (NCI-H1417, 1 nM, 168 hrs): −0.19
Log2_FC GRP (NCI-H1417, 1 nM, 168 hrs): −0.68
Log2_FC NOTCH1 (NCI-H1417, 1 nM, 168 hrs): 2.55
Log2_FC ASCL1 (NCI-H1417, 10 nM, 24 hrs): −0.25
Log2_FC GRP (NCI-H1417, 10 nM, 24 hrs): −0.35
Log2_FC NOTCH1 (NCI-H1417, 10 nM, 24 hrs): 1.86
Log2_FC ASCL1 (NCI-H1417, 10 nM, 96 hrs): −0.54
Log2_FC GRP (NCI-H1417, 10 nM, 96 hrs): −1.13
Log2_FC NOTCH1 (NCI-H1417, 10 nM, 96 hrs): 3.14
Log2_FC ASCL1 (NCI-H1417, 10 nM, 168 hrs): −0.66
Log2_FC GRP (NCI-H1417, 10 nM, 168 hrs): −1.14
Log2_FC NOTCH1 (NCI-H1417, 10 nM, 168 hrs): 3.22
Log2_FC ASCL1 (NCI-H1876, 0.1 nM, 24 hrs): 0.16
Log2_FC GRP (NCI-H1876, 0.1 nM, 24 hrs): 0.41
Log2_FC NOTCH1 (NCI-H1876, 0.1 nM, 24 hrs): 0.82
Log2_FC ASCL1 (NCI-H1876, 0.1 nM, 96 hrs): −0.58
Log2_FC GRP (NCI-H1876, 0.1 nM, 96 hrs): −1.58
Log2_FC NOTCH1 (NCI-H1876, 0.1 nM, 96 hrs): −0.76
Log2_FC ASCL1 (NCI-H1876, 0.1 nM, 168 hrs): 0.35
Log2_FC NOTCH1 (NCI-H1876, 0.1 nM, 168 hrs): −0.59
Log2_FC ASCL1 (NCI-H1876, 1 nM, 24 hrs): 0.04
Log2_FC GRP (NCI-H1876, 1 nM, 24 hrs): 0.70
Log2_FC NOTCH1 (NCI-H1876, 1 nM, 24 hrs): 2.28
Log2_FC ASCL1 (NCI-H1876, 1 nM, 96 hrs): −0.54
Log2_FC GRP (NCI-H1876, 1 nM, 96 hrs): −1.96
Log2_FC NOTCH1 (NCI-H1876, 1 nM, 96 hrs): 1.08
Log2_FC ASCL1 (NCI-H1876, 1 nM, 168 hrs): 0.32
Log2_FC GRP (NCI-H1876, 1 nM, 168 hrs): −0.54
Log2_FC ASCL1 (NCI-H1876, 10 nM, 24 hrs): −0.02
Log2_FC GRP (NCI-H1876, 10 nM, 24 hrs): 0.38
Log2_FC NOTCH1 (NCI-H1876, 10 nM, 24 hrs): 2.67
Log2_FC ASCL1 (NCI-H1876, 10 nM, 96 hrs): −0.82
Log2_FC NOTCH1 (NCI-H1876, 10 nM, 96 hrs): 2.07
Log2_FC ASCL1 (NCI-H1876, 10 nM, 168 hrs): 0.03
Log2_FC GRP (NCI-H1876, 10 nM, 168 hrs): −1.38
Log2_FC NOTCH1 (NCI-H1876, 10 nM, 168 hrs): 2.55
Log2_FC ASCL1 (NCI-H2171, 0.1 nM, 24 hrs): −0.14
Log2_FC GRP (NCI-H2171, 0.1 nM, 24 hrs): 0.01
Log2_FC NOTCH1 (NCI-H2171, 0.1 nM, 24 hrs): 0.49
Log2_FC ASCL1 (NCI-H2171, 0.1 nM, 96 hrs): −0.29
Log2_FC GRP (NCI-H2171, 0.1 nM, 96 hrs): −1.96
Log2_FC NOTCH1 (NCI-H2171, 0.1 nM, 96 hrs): 0.95
Log2_FC ASCL1 (NCI-H2171, 0.1 nM, 168 hrs): −0.16
Log2_FC GRP (NCI-H2171, 0.1 nM, 168 hrs): −1.11
Log2_FC NOTCH1 (NCI-H2171, 0.1 nM, 168 hrs): 0.90
Log2_FC ASCL1 (NCI-H2171, 1 nM, 24 hrs): −0.06
Log2_FC NOTCH1 (NCI-H2171, 1 nM, 24 hrs): 0.75
Log2_FC ASCL1 (NCI-H2171, 1 nM, 96 hrs): −0.43
Log2_FC GRP (NCI-H2171, 1 nM, 96 hrs): −1.17
Log2_FC NOTCH1 (NCI-H2171, 1 nM, 96 hrs): 1.17
Log2_FC ASCL1 (NCI-H2171, 1 nM, 168 hrs): −0.02
Log2_FC GRP (NCI-H2171, 1 nM, 168 hrs): −1.56
Log2_FC NOTCH1 (NCI-H2171, 1 nM, 168 hrs): 1.41
Log2_FC ASCL1 (NCI-H2171, 10 nM, 24 hrs): −0.16
Log2_FC GRP (NCI-H2171, 10 nM, 24 hrs): −0.37
Log2_FC NOTCH1 (NCI-H2171, 10 nM, 24 hrs): 0.82
Log2_FC ASCL1 (NCI-H2171, 10 nM, 96 hrs): −0.27
Log2_FC GRP (NCI-H2171, 10 nM, 96 hrs): −0.46
Log2_FC NOTCH1 (NCI-H2171, 10 nM, 96 hrs): 1.22
Log2_FC ASCL1 (NCI-H2171, 10 nM, 168 hrs): −0.11
Log2_FC GRP (NCI-H2171, 10 nM, 168 hrs): −0.87
Log2_FC NOTCH1 (NCI-H2171, 10 nM, 168 hrs): 1.63
Log2_FC ASCL1 [1]: −0.11
Log2_FC GRP [1]: 0.17
Log2_FC ASCL1 [2]: 0.11
Log2_FC GRP [2]: 0.74
Log2_FC ASCL1 [3]: −0.36
Log2_FC GRP [3]: 0.43
Log2_FC ASCL1 [4]: 0.52
Log2_FC GRP [4]: 1.20
Log2_FC ASCL1 [5]: 0.38
Log2_FC GRP [5]: 0.83
Log2_FC ASCL1 [6]: −0.33
Log2_FC GRP [6]: 0.16
Log2_FC ASCL1 [7]: −0.07
Log2_FC GRP [7]: −0.10
Log2_FC ASCL1 [8]: 0.22
Log2_FC GRP [8]: 0.56
Log2_FC ASCL1 [9]: −0.50
Log2_FC GRP [9]: −0.06
